# PubChem BioAssay AID328 (DTP/NCI, 2004)
# Where “and” joins values, the source holds several entries; their conditions need not be identical. Equal values may be shown once. Inconclusive results and toxic doses are left out.
# Test system: BDF1 mice, P388 leukemia ip, median survival T/C
# Experiment: NCI In Vivo Anticancer Drug Screen. Data for tumor model P388 Leukemia (intraperitoneal) in B6D2F1 (BDF1) mice
# Conditions: endpoint: median survival time, higher = longer survival
# Method in brief: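 Each value expresses how treatment altered survival: treated-mouse outcome over vehicle-mouse outcome, both groups bearing the transplanted tumour.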
# [1] = dose: 25.0 mg/kg/injection, schedule: Q04DX003 (ip), vehicle: saline
# [2] = dose: 50.0 mg/kg/injection, schedule: Q04DX003 (ip), vehicle: saline
# [3] = dose: 100.0 mg/kg/injection, schedule: Q04DX003 (ip), vehicle: saline
# [4] = dose: 200.0 mg/kg/injection, schedule: Q04DX003 (ip), vehicle: saline
# [5] = dose: 50.0 mg/kg/injection, schedule: Q04DX003 (ip), vehicle: water
# [6] = dose: 100.0 mg/kg/injection, schedule: Q04DX003 (ip), vehicle: water
# [7] = dose: 200.0 mg/kg/injection, schedule: Q04DX003 (ip), vehicle: water
# [8] = dose: 400.0 mg/kg/injection, schedule: Q04DX003 (ip), vehicle: water
# [9] = dose: 100.0 mg/kg/injection, schedule: Q01DX009 (ip), vehicle: saline with Tween-80
# [10] = dose: 100.0 mg/kg/injection, schedule: Q04DX003 (ip), vehicle: saline with Tween-80
# [11] = dose: 200.0 mg/kg/injection, schedule: Q04DX003 (ip), vehicle: saline with Tween-80
# [12] = dose: 400.0 mg/kg/injection, schedule: Q04DX003 (ip), vehicle: saline with Tween-80
# [13] = dose: 100.0 mg/kg/injection, schedule: Q04DX003 (ip), vehicle: Klucel (hydroxypropylcellulose) (HPC)
# [14] = dose: 200.0 mg/kg/injection, schedule: Q04DX003 (ip), vehicle: Klucel (hydroxypropylcellulose) (HPC)
# [15] = dose: 400.0 mg/kg/injection, schedule: Q04DX003 (ip), vehicle: Klucel (hydroxypropylcellulose) (HPC)
# [16] = dose: 25.0 mg/kg/injection, schedule: Q01DX009 (ip), vehicle: saline
smiles,measurement,setting,value
COc1cccc2c1C(=O)c1c(O)c3c(c(O)c1C2=O)CC(O)(C(C)=O)CC3OC1CC(N)C(O)C(C)O1 (stereo not given),T/C,"dose: 0.03 mg/kg/injection, schedule: Q01DX010 (ip), vehicle: saline",118 % of control
same,T/C,"dose: 0.06 mg/kg/injection, schedule: Q01DX010 (ip), vehicle: saline",118 % of control
same,T/C,"dose: 0.12 mg/kg/injection, schedule: Q01DX010 (ip), vehicle: saline",118 % of control
same,T/C,"dose: 0.25 mg/kg/injection, schedule: Q01DX009 (ip), vehicle: water",160 % of control
same,T/C,"dose: 0.25 mg/kg/injection, schedule: Q01DX010 (ip), vehicle: saline",165 % of control and 175 % of control
same,T/C,"dose: 0.5 mg/kg/injection, schedule: Q01DX009 (ip), vehicle: water",173 % of control
same,T/C,"dose: 0.5 mg/kg/injection, schedule: Q01DX010 (ip), vehicle: saline",180 % of control and 195 % of control
same,T/C,"dose: 1.0 mg/kg/injection, schedule: Q01DX009 (ip), vehicle: water",182 % of control
same,T/C,"dose: 1.0 mg/kg/injection, schedule: Q01DX010 (ip), vehicle: saline",230 % of control and 200 % of control
same,T/C,"dose: 2.0 mg/kg/injection, schedule: Q01DX009 (ip), vehicle: water",210 % of control
same,T/C,"dose: 2.0 mg/kg/injection, schedule: Q01DX010 (ip), vehicle: saline",155 % of control and 190 % of control and 220 % of control
same,T/C,"dose: 4.0 mg/kg/injection, schedule: Q01DX009 (ip), vehicle: water",157 % of control
same,T/C,"dose: 4.0 mg/kg/injection, schedule: Q01DX010 (ip), vehicle: saline",180 % of control
same,T/C,"dose: 7.5 mg/kg/injection, schedule: Q04DX003 (ip), vehicle: water",104 % of control
same,T/C,"dose: 8.0 mg/kg/injection, schedule: Q01DX001 (ip), vehicle: saline",150 % of control
same,T/C,"dose: 8.0 mg/kg/injection, schedule: Q01DX010 (ip), vehicle: saline",90 % of control and 95 % of control
same,T/C,"dose: 15.0 mg/kg/injection, schedule: Q04DX003 (ip), vehicle: water",119 % of control
same,T/C,"dose: 16.0 mg/kg/injection, schedule: Q01DX001 (ip), vehicle: saline",90 % of control
same,T/C,"dose: 60.0 mg/kg/injection, schedule: Q04DX003 (ip), vehicle: water",167 % of control
same,T/C,"dose: 240.0 mg/kg/injection, schedule: Q04DX003 (ip), vehicle: water",93 % of control
same,T/C,"dose: 125.0 micrograms/kg/injection, schedule: Q01DX010 (ip), vehicle: saline",154 % of control
same,T/C,"dose: 250.0 micrograms/kg/injection, schedule: Q01DX010 (ip), vehicle: saline",159 % of control
CSCC(N)CO (stereo not given),T/C,[1],104 % of control
same,T/C,[2],111 % of control and 116 % of control
same,T/C,[3],116 % of control
same,T/C,[4],109 % of control and 111 % of control
same,T/C,"dose: 400.0 mg/kg/injection, schedule: Q04DX003 (ip), vehicle: saline",90 % of control and 120 % of control
CCOC(=O)C(C)Oc1ccc(Cl)cc1 (stereo not given),T/C,"dose: 25.0 mg/kg/injection, schedule: Q04DX003 (ip), vehicle: water",106 % of control
same,T/C,[5],101 % of control
same,T/C,[6],113 % of control
same,T/C,[7],112 % of control
same,T/C,[8],106 % of control
COC(=O)[CH](C[N+](=O)[O-])[Hg][Cl] (stereo not given),T/C,"dose: 1.56 mg/kg/injection, schedule: Q01DX009 (ip), vehicle: Klucel (hydroxypropylcellulose) (HPC)",104 % of control
same,T/C,"dose: 2.32 mg/kg/injection, schedule: Q04DX003 (ip), vehicle: Klucel (hydroxypropylcellulose) (HPC)",104 % of control
same,T/C,"dose: 3.12 mg/kg/injection, schedule: Q01DX009 (ip), vehicle: Klucel (hydroxypropylcellulose) (HPC)",113 % of control
same,T/C,"dose: 4.65 mg/kg/injection, schedule: Q04DX003 (ip), vehicle: Klucel (hydroxypropylcellulose) (HPC)",113 % of control
CC1OC(Oc2c(-c3cc(O)c(O)c(O)c3)oc3cc(O)cc(O)c3c2=O)C(O)C(O)C1O (stereo not given),T/C,"dose: 50.0 mg/kg/injection, schedule: Q01DX009 (ip), vehicle: saline with Tween-80",119 % of control
same,T/C,[9],100 % of control
Oc1cc(Cl)c(Cl)c(Cl)c1,T/C,"dose: 100.0 mg/kg/injection, schedule: Q04DX002 (ip), vehicle: saline with Tween-80",102 % of control
same,T/C,"dose: 200.0 mg/kg/injection, schedule: Q04DX002 (ip), vehicle: saline with Tween-80",98 % of control
same,T/C,"dose: 400.0 mg/kg/injection, schedule: Q04DX002 (ip), vehicle: saline with Tween-80",97 % of control
Cc1ccccc1N1C(=O)CSC1=S,T/C,[10],100 % of control
same,T/C,"dose: 132.0 mg/kg/injection, schedule: Q04DX003 (ip), vehicle: saline with Tween-80",90 % of control
same,T/C,[11],100 % of control
same,T/C,"dose: 300.0 mg/kg/injection, schedule: Q04DX003 (ip), vehicle: saline with Tween-80",100 % of control
same,T/C,[12],90 % of control
CCOc1ccc(N2C(=O)CC(Sc3ccccc3N)C2=O)cc1 (stereo not given),T/C,"dose: 100.0 mg/kg/injection, schedule: Q01DX001 (ip), vehicle: Klucel (hydroxypropylcellulose) (HPC)",105 % of control
same,T/C,[13],100 % of control
same,T/C,"dose: 200.0 mg/kg/injection, schedule: Q01DX001 (ip), vehicle: Klucel (hydroxypropylcellulose) (HPC)",100 % of control
same,T/C,[14],90 % of control
same,T/C,"dose: 400.0 mg/kg/injection, schedule: Q01DX001 (ip), vehicle: Klucel (hydroxypropylcellulose) (HPC)",100 % of control
same,T/C,[15],100 % of control
O=S1(=O)CCCCO1,T/C,"dose: 11.0 mg/kg/injection, schedule: Q01DX009 (ip), vehicle: saline",90 % of control
same,T/C,"dose: 16.5 mg/kg/injection, schedule: Q01DX009 (ip), vehicle: saline",100 % of control
same,T/C,[16],109 % of control
same,T/C,[1],95 % of control
same,T/C,"dose: 37.5 mg/kg/injection, schedule: Q01DX009 (ip), vehicle: saline",100 % of control
same,T/C,[2],100 % of control
same,T/C,[3],104 % of control
CC#CC#C/C=C1\OC2(CCCCO2)C(O)C1OC(=O)CC(C)C (stereo not given),T/C,"dose: 10.0 mg/kg/injection, schedule: Q01DX009 (ip), vehicle: Klucel (hydroxypropylcellulose) (HPC)",100 % of control
same,T/C,"dose: 20.0 mg/kg/injection, schedule: Q01DX009 (ip), vehicle: Klucel (hydroxypropylcellulose) (HPC)",102 % of control
same,T/C,"dose: 40.0 mg/kg/injection, schedule: Q01DX009 (ip), vehicle: Klucel (hydroxypropylcellulose) (HPC)",111 % of control
O=c1[nH]c2nccnc2[nH]1,T/C,"dose: 12.5 mg/kg/injection, schedule: Q01DX009 (ip), vehicle: water",93 % of control and 99 % of control
same,T/C,"dose: 25.0 mg/kg/injection, schedule: Q01DX009 (ip), vehicle: water",90 % of control and 104 % of control
same,T/C,"dose: 50.0 mg/kg/injection, schedule: Q01DX009 (ip), vehicle: water",97 % of control
same,T/C,[5],107 % of control
same,T/C,"dose: 100.0 mg/kg/injection, schedule: Q01DX009 (ip), vehicle: water",89 % of control and 101 % of control and 109 % of control
same,T/C,[6],105 % of control
same,T/C,[7],107 % of control
same,T/C,[8],116 % of control
Cc1cc(C)c(N)c(Br)c1C,T/C,[9],100 % of control
same,T/C,"dose: 200.0 mg/kg/injection, schedule: Q01DX009 (ip), vehicle: saline with Tween-80",87 % of control
CO[C@@H](C=O)O[C@@H](C=O)CO,T/C,"dose: 6.25 mg/kg/injection, schedule: Q01DX009 (ip), vehicle: saline",120 % of control
same,T/C,[16],150 % of control
same,T/C,[2],150 % of control
same,T/C,"dose: 89.0 mg/kg/injection, schedule: Q04DX003 (ip), vehicle: saline",170 % of control
same,T/C,[3],160 % of control
same,T/C,"dose: 133.0 mg/kg/injection, schedule: Q04DX003 (ip), vehicle: saline",160 % of control
same,T/C,[4],175 % of control and 180 % of control
CNC(CNC(CO)CC(C)C)Cc1ccc(OCc2ccccc2)cc1 (stereo not given),T/C,"dose: 12.5 mg/kg/injection, schedule: Q01DX009 (ip), vehicle: saline",104 % of control
same,T/C,[16],100 % of control
Nc1cc2c3ccccc3ncc2c2ccccc12,T/C,[10],100 % of control
same,T/C,[11],100 % of control
same,T/C,[12],100 % of control
Nc1ccc(C(=O)Nc2ccc(Nc3ccncc3)cc2)cc1,T/C,"dose: 100.0 mg/kg/injection, schedule: Q01DX009 (ip), vehicle: Klucel (hydroxypropylcellulose) (HPC)",109 % of control
same,T/C,[13],104 % of control
same,T/C,"dose: 200.0 mg/kg/injection, schedule: Q01DX009 (ip), vehicle: Klucel (hydroxypropylcellulose) (HPC)",118 % of control
same,T/C,[14],104 % of control
same,T/C,"dose: 400.0 mg/kg/injection, schedule: Q01DX009 (ip), vehicle: Klucel (hydroxypropylcellulose) (HPC)",118 % of control
same,T/C,[15],100 % of control
